14 molecules from ChEMBL document CHEMBL4376822, “Hot-Spots of Mcl-1 Protein” (J Med Chem, 2020) can be followed below.

The target in assay [1] is T1, Apoptosis regulator Bcl-2 (Homo sapiens, UniProt P10415). The assay is described as follows: Displacement of fluorescein labelled Puma-BH3 peptide from human BCl2 expressed in Escherichia coli BL21 (DE3) pLysS cells incubated for 2 hrs by fluorescence polarization assay. A general note: In fluorescence polarisation assays a small probe gives low polarisation when free and higher when bound to something large.

Assay [2] is described as follows: Inhibition of human GST-tagged BCL-XL deltaC25 mutant using biotinylated BIM 26-mer peptide as substrate incubated for 30 mins by AlphaScreen assay. A general note: Bead proximity is the source of the signal in Alpha formats.
The target of assay [3] is T2, Induced myeloid leukemia cell differentiation protein Mcl-1 (Homo sapiens, UniProt Q07820). In words: Displacement of fluorescein labelled Puma-BH3 peptide from His-tagged-TEV fused human Mcl-1 incubated for 2 hrs by fluorescence polarization assay.
Assay [4] concerns the target T2, Induced myeloid leukemia cell differentiation protein Mcl-1.
Assay [5] concerns the target T1, Apoptosis regulator Bcl-2. In words: Inhibition of wild-type BCL-2 (unknown origin) expressed in Escherichia coli BL21 cells using biotinylated BIMBH3 or BAXBH3 peptide by surface plasmon resonance assay. (SPR reads the build-up and loss of mass on a sensor chip optically.)
For assay [6], the target named is T1, Apoptosis regulator Bcl-2. In words: Inhibition of Bcl-2 (unknown origin) by fluorescence polarization assay.
Assay [7] in a line: Inhibition of human GST-tagged BCL-XL deltaC24 mutant using BIMBH3 mutant peptide as substrate by SPR assay.
In assay [8] the target is T2, Induced myeloid leukemia cell differentiation protein Mcl-1. The assay is described as follows: Inhibition of TAMRA-labeled BIM BH3 peptide binding to human Mcl1 (171 to 327 residues) incubated for 120 mins by fluorescence polarization.
In assay [9] the target is T1, Apoptosis regulator Bcl-2. In words: Inhibition of human BCl2 expressed in Escherichia coli BL21 (DE3) pLysS cells by surface plasmon resonance assay.

T1 sequence (P10415 whole entry): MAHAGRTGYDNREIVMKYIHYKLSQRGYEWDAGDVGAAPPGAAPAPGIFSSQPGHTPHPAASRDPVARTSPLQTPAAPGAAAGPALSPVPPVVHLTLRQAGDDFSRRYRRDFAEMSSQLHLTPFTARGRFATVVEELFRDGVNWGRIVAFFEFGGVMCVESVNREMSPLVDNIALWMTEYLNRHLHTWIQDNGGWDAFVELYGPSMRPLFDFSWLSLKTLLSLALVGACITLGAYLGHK
T2 sequence (Q07820 whole entry, the tested form may be a part): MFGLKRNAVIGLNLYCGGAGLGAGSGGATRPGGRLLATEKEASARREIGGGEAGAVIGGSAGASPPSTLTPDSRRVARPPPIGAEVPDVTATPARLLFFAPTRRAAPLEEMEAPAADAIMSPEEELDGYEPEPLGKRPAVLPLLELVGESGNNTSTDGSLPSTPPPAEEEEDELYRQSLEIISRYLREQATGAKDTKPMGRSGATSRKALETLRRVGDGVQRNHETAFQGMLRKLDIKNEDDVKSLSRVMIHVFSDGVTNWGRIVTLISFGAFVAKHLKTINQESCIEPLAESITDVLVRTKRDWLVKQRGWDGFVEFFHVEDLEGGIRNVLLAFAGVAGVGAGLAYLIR

As for `COc1cc2c(cc1C(CN1CCCC1)c1ccc(-c3ccc(C(=O)NS(=O)(=O)c4ccc(C[C@H](CCN5CCOCC5)CSc5ccccc5)c(S(=O)(=O)C(F)(F)F)c4)cc3)cc1)OCO2` (some centres undefined), the concentration for half-maximal inhibition (IC50) in assay [1] amounted to 20 nM.

In assay [2], `O=C(O)c1cccc(-c2ccc3c(c2)/C(=N/Nc2nc4ccccc4s2)CCC3)n1` displayed a concentration for half-maximal inhibition (IC50) of […].

In assay [2], `O=C(O)c1nc(-c2ccc3c(c2)/C(=N/Nc2nc4ccccc4s2)CCC3)sc1CCCCc1ccccc1` gave an IC50 of 24 nM.

As to `CCc1sc2ncnc(N[C@@H](CO)C(=O)O)c2c1-c1ccccc1`, the IC50 in assay [3] was 520 µM.

In assay [4], `Cc1ccccc1-c1cccc2c(CCCOc3cccc4ccccc34)c(C(=O)O)[nH]c12` showed an IC50 of 1100 nM.

`NC[C@@H]1Cc2ccccc2CN1C(=O)c1cc2c(cc1-c1cc(C(=O)N(c3ccccc3)c3ccc(O)cc3)c3n1CCCC3)OCO2` yielded a Ki in [5] of 0.36 nM.

For `Cc1n[nH]c(C)c1-c1cccc2c(CCCOc3cccc4ccccc34)c(C(=O)O)[nH]c12`, in assay [3], the 50% inhibitory concentration (IC50) stood at 0.1 µM.

Consider `CCCCN(CCCC)C(=O)c1cc(C)n(-c2ccccc2C(=O)N2Cc3ccccc3C[C@H]2CN)n1`, for which, in [1], the half-maximal inhibitory concentration (IC50) was determined as 1300 nM.

Regarding `O=C(NS(=O)(=O)c1ccc(NC2CCOCC2)c([N+](=O)[O-])c1)c1ccc(N2CCN(CC3=C(c4ccc(Cl)cc4)COCC3)CC2)cc1`, the Ki in assay [6] came out at 59 nM.

In the case of `CN(C)CC[C@H](CSc1ccccc1)Nc1ccc(S(=O)(=O)NC(=O)c2ccc(N3CCN(Cc4ccccc4-c4ccccc4)CC3)cc2)cc1[N+](=O)[O-]`, 11 nM corresponded to half-maximal inhibition in assay [7] (IC50). This lies in the double-digit nanomolar range.

For the molecule `O=C1NS(=O)(=O)CCOCCCCCCN2C[C@@]3(CCCc4cc(Cl)ccc43)COc3ccc1cc32`, the half-maximal inhibitory concentration (IC50) in assay [8] was found to be 10 nM.

As for `CC[C@H](C)[C@H](NC(=O)[C@H](CCC(=O)O)NC(=O)[C@H](CCCNC(=N)N)NC(=O)[C@H](C)NC(=O)[C@H](Cc1c[nH]c2ccccc12)NC(=O)[C@H](CCC(N)=O)NC(=O)[C@H](CCC(=O)O)NC(=O)[C@@H](N)CCC(=O)O)C(=O)NCC(=O)N[C@@H](C)C(=O)N[C@@H](CCC(N)=O)C(=O)N[C@@H](CC(C)C)C(=O)N[C@@H](CCCNC(=N)N)C(=O)N[C@@H](CCCNC(=N)N)C(=O)N[C@@H](CCSC)C(=O)N[C@@H](C)C(=O)N[C@@H](CC(=O)O)C(=O)N[C@@H](CC(=O)O)C(=O)N[C@@H](CC(C)C)C(=O)N[C@@H](CC(N)=O)C(=O)N[C@@H](C)C(=O)N[C@@H](CCC(N)=O)C(=O)N[C@@H](Cc1ccc(O)cc1)C(=O)N[C@@H](CCC(=O)O)C(=O)N[C@@H](CCCNC(=N)N)C(=O)O`, the IC50 in assay [9] is 3.3 nM. This counts as single-digit nanomolar.

Turning to `C/C(=N\Nc1nc2ccccc2s1)c1ccc(-c2ccc(S(=O)(=O)NC(=O)CCCCCc3ccccc3)cc2)o1`, in [2], inhibition was half-maximal at 770 nM (IC50).

As to `C[N+](C)(CC[C@H](CSc1ccccc1)Nc1ccc(S(=O)(=O)NC(=O)c2ccc(N3CCN(Cc4ccccc4-c4ccc(Cl)cc4)CC3)cc2)cc1[N+](=O)[O-])CC(=O)O`, in [1], the half-maximal inhibitory concentration (IC50) stood at 500 nM.

What is called IC50 is the concentration at which inhibition is half-maximal. The low end stands for greater potency, the high end for weaker potency. The Ki is a dissociation constant, usually derived from enzyme kinetics or from competition with a known ligand.
